Experimental data published in article PMC12592400, “A unique inhibitor conformation selectively targets the DNA polymerase PolC of Gram-positive priority pathogens” (Nature Communications, 2025).
Converted amounts (≈) assume the structure as drawn. Like-named read-outs stand apart in the source and are kept apart here.

How the values were obtained:
[1] = test system: E. faecium strains with polC mutations (A1281T, F1276I, F1276L, F1276S); assay: Cross-resistance MIC of reduced susceptible E. faecium strains; type: cell-based, Enterococcus faecium; details: for MIC: Enterococcus faecium
Procedure: Strains with reduced susceptibility to ACX compounds were generated by WuXi Apptec on behalf of Acurx Pharmaceuticals, Inc., using E. faecium ATCC 700221 as parental strain.
Agar MICs for the wild-type strain were determined on Blood agar (Huankai). Compounds and linezolid were dissolved in 100% DMSO and vancomycin in ultrapure water. Strains were inoculated onto agar plates, incubated at 37 °C for 20-24 h after which colonies were suspended in sterile 0.9% saline at different bacterial concentrations. 5 μL of bacterial suspensions was individually spotted on agar plates supplemented with compounds at different concentrations, resulting in final concentrations of 10^–1, 10^–2, 10^–3, 10^–4, 10^–5, 10^–6, and 10^–7 per spot. After incubation for 20-24 h, bacterial growth was assessed by visual inspection.
For frequency of resistance (FOR) studies, colonies from the agar plate were suspended into sterile 0.9% saline to get 10^8-10^9 CFU bacterial cells per mL. […] The suspensions were also serially diluted with 0.9% saline and spotted onto agar to determine the actual inoculum. All agar plates were incubated at 37 °C for 48 h. FOR was defined as colony number on each compound-containing plate per CFU number of actual inoculum. Resistant colonies were subcultured on the corresponding compound plates to confirm that colonies were resistant and stable.
Confirmed resistant colonies were used for cross-resistance studies, as described above.
Paired-end short read sequencing data from selected mutants (generated by BGISEQ) as well as the corresponding wild-type parental strain was analysed against the reference genomes for E. faecium strain ATCC 700221 (https://genomes.atcc.org/genomes/f9d13a716ccb4f78) using Geneious R10.2.6 (Biomatters Ltd). Variants were called using the Find Variants/SNPs function with a minimum coverage of 10 and a minimum frequency of 0.8. […] This identified the following mutations in the polC gene: D1103Y in strain Efa4; F1276L in strains Efa030, Efa038, and Efa039; F1276I in strains Efa1 and Efa037; F1276S in strain Efa3; A1281T in strains Efa036, Efa040 and Efa041. Strains Efa036, Efa039, and Efa040 each had only one polymorphism identified.

[2] = test system: Enterococcus faecalis ATCC 29212; assay: Broth microdilution MIC; type: cell-based
Procedure: (§1) Minimal inhibitory concentrations (MICs) were determined by WuXi Apptec, on behalf of Acurx Pharmaceuticals, Inc., for the Gram-positive pathogens: Enterococcus faecium ATCC 700221 (VRE; vancomycin-resistant), Enterococcus faecalis ATCC 29212, Staphylococcus aureus NRS384 (MRSA; methicillin-resistant), Staphylococcus aureus ATCC 29213 (MSSA; methicillin-sensitive), and Streptococcus pneumoniae ATCC 49619 (PRSP; penicillin-resistant). As a control, Gram-negative Escherichia coli ATCC 25922 was included. All strains were obtained from ATCC with the exception of Staphylococcus aureus NRS384, which was obtained from NARSA (Network on Antimicrobial Resistance in Staphylococcus aureus, now part of BEI resources). Bacteria were cultured according to the manuals provided by the suppliers and stored in 25% glycerol (final concentration) at –80 °C.
(§2) Bacterial strains were streaked out onto MHA plates (Mueller-Hinton II Agar; BD-211438) and incubated at 37 °C for 20 h except for S. pneumoniae and Enterococci, which were streaked on blood agar (Huankai-24070). S. pneumoniae was incubated in 5% CO2. Single colonies were suspended in 5 mL sterile saline, the turbidity was adjusted to 0.20 (Siemens MicroScan turbidity metre; equal to ~1.0 × 10^8 colony forming units (CFU)/mL) and then diluted 200x in MHIIB (Mueller-Hinton II […] (BD-211438)) medium. The MHIIB media was supplemented with 5% Lysed Horse Blood (Shanghai YuanMu Biological Technology Co. Ltd. YM-U161) for S. pneumoniae.
(§3) ACX compounds were dissolved in pure DMSO (Sigma 276855) to a concentration of 20 mg/mL. From this, twofold serial dilutions (from […]) in DMSO were transferred to a 96-well source-plate (Axygen-wipp02280) with pure DMSO as a control. 2 µL from the source plate was then transferred into 96-well culture plates (Costar 3788) and inoculated with 198 µL of the bacterial suspension so that each well contained ~5.0 × 10^5 CFU/mL bacteria, 1% DMSO and serially diluted compounds at 0 µg/mL and 0.0625-64 µg/mL in 100 µl medium. For NRS384, which was tested in a separate experiment, 99 µL of bacterial suspension was added to 1 µL of compound. The plates were incubated in ambient atmosphere at 37 °C for 20 h.

[3] = test system: Streptococcus pneumoniae ATCC 49619 (PRSP; penicillin-resistant); assay: Broth microdilution MIC; type: cell-based; details: read-out: Measured MIC
Procedure: as §1, §2, §3

[4] = test system: Escherichia coli ATCC 25922; assay: Broth microdilution MIC; type: cell-based
Procedure: as §1, §2, §3

[5] = test system: Enterococcus faecium ATCC 700221 (VRE; vancomycin-resistant); assay: Broth microdilution MIC; type: cell-based; details: for MIC: Enterococcus faecium, read-out: Measured MIC; for Measured MIC: Table 2, polC WT, strain ATCC 700221
Procedure: as §1, §2, §3

[6] = test system: Staphylococcus aureus ATCC 29213 (MSSA; methicillin-sensitive); assay: Broth microdilution MIC; type: cell-based; details: read-out: Measured MIC
Procedure: as §1, §2, §3

[7] = test system: Staphylococcus aureus NRS384 (MRSA; methicillin-resistant); assay: Broth microdilution MIC; type: cell-based; details: read-out: Measured MIC
Procedure: as §1, §2, §3

[8] = read-out: Measured MIC, polC A1281T, strain Efa036, selected on 2 mg/L ACX-641
[9] = read-out: Measured MIC, polC A1281T, strain Efa040, selected on 4 mg/L ACX-671
[10] = read-out: Measured MIC, polC F1276I, strain Efa037, selected on 4 mg/L ACX-641
[11] = read-out: Measured MIC, polC F1276L, strain Efa030, selected on 16 mg/L ACX-728
[12] = read-out: Measured MIC, polC F1276S, strain Efa3, selected on 16 mg/L ACX-728
[13] = ATCC29212, read-out: Measured MIC
[14] = ATCC25922, read-out: Measured MIC

Compound	MIC [1, 8]	MIC [1, 9]	MIC [1, 10]	MIC [1, 11]	MIC [1, 12]	MIC [2, 13]	MIC [3]	MIC [4, 14]	MIC [5]	Measured MIC [5]	MIC [6]	further results
CCCCCCCCCC(=O)N[C@@H](Cc1c[nH]c2ccccc12)C(=O)N[C@H](CC(N)=O)C(=O)N[C@@H](CC(=O)O)C(=O)N[C@@H]1C(=O)NCC(=O)N[C@@H](CCCN)C(=O)N[C@@H](CC(=O)O)C(=O)N[C@H](C)C(=O)N[C@@H](CC(=O)O)C(=O)NCC(=O)N[C@H](CO)C(=O)N[C@@H]([C@H](C)CC(=O)O)C(=O)N[C@@H](CC(=O)c2ccccc2N)C(=O)O[C@@H]1C [DAP, daptomycin]	4 µg/mL	4 µg/mL	2 µg/mL	2 µg/mL	2 µg/mL	8 µg/mL (≈ 4.94 µM)	0.5 µg/mL (≈ 0.309 µM)	> 64 µg/mL	4 µg/mL (≈ 2.47 µM)	4 µg/mL	1 µg/mL (≈ 0.617 µM)	
CN(C)c1cc(CNCC(C)(C)C)c(O)c2c1C[C@H]1C[C@H]3[C@H](N(C)C)C(O)=C(C(N)=O)C(=O)[C@@]3(O)C(O)=C1C2=O [OMC, omadacycline]	0.12 µg/mL	0.12 µg/mL	≤ 0.06 µg/mL	0.12 µg/mL	≤ 0.06 µg/mL					0.12 µg/mL		MIC ([2]; ATCC29212, E. faecalis ATCC 29212, Table 1, single replicate, read-out: Measured MIC): 0.25 µg/mL (≈ 0.449 µM); MIC ([3]; S. pneumoniae PRSP ATCC 49619, Table 1, single replicate): ≤ 0.06 µg/mL; MIC ([4]; ATCC25922, E. coli ATCC 25922, Table 1, single replicate, read-out: Measured MIC): 1 µg/mL (≈ 1.8 µM); MIC ([5]; E. faecium VRE ATCC 700221, Table 1, single replicate): 0.12 µg/mL (≈ 0.216 µM); MIC ([6]; S. aureus ATCC 29213, Table 1, single replicate): 0.5 µg/mL (≈ 0.898 µM)
CN[C@H](CC(C)C)C(=O)N[C@H]1C(=O)N[C@@H](CC(N)=O)C(=O)N[C@H]2C(=O)N[C@H]3C(=O)N[C@H](C(=O)N[C@H](C(=O)O)c4cc(O)cc(O)c4-c4cc3ccc4O)[C@H](O)c3ccc(c(Cl)c3)Oc3cc2cc(c3O[C@@H]2O[C@H](CO)[C@@H](O)[C@H](O)[C@H]2O[C@H]2C[C@](C)(N)[C@H](O)[C@H](C)O2)Oc2ccc(cc2Cl)[C@H]1O [VAN, vancomycin]						4 µg/mL (≈ 2.76 µM)	0.25 µg/mL (≈ 0.173 µM)	> 64 µg/mL	> 64 µg/mL	>64 µg/mL	1 µg/mL (≈ 0.69 µM)	MIC ([1]; read-out: Measured MIC): > 64 µg/mL; Measured MIC ([1]; polC A1281T, strain Efa036, selected on 2 mg/L ACX-641): >64 µg/mL; Measured MIC ([1]; polC F1276I, strain Efa037, selected on 4 mg/L ACX-641): >64 µg/mL; Measured MIC ([1]; polC F1276L, strain Efa030, selected on 16 mg/L ACX-728): >64 µg/mL; Measured MIC ([1]; polC F1276S, strain Efa3, selected on 16 mg/L ACX-728): >64 µg/mL; MIC [7]: 1 µg/mL (≈ 0.69 µM)
